Test results from patent US6635265B1, “Materials and methods useful for the control of insect larvae” (University of Florida Research Foundation, Inc., priority 1999, dated 2003).
Square brackets hold non-standard residues; d marks the D form. Ends that are not written are not given here.

What was measured:
[1] = test system: first instar larvae S. exigua; assay: Inhibition of Spodoptera exigua larval growth by feeding of TMOF; assay type: in vivo
Procedure: The x-axis represents the TMOF concentration and the y-axis represents percentage of growth inhibition.
Individual, first instar larvae S. exigua were maintained in separate petri dishes and were fed on artificial diet blocks of 50 mg on which different concentrations of TMOF (0 to 100 μg) were adsorbed. Larvae were fed for 6 days and larval length was measured every 24 hours and compared with controls that were not fed TMOF. Each experiment was repeated 10 times.

mosquito larvae = assay: Feeding TMOF and its analogue peptides to mosquito larvae (LD50); assay type: in vivo, Aedes aegypti; settings: 100 μl microtiter plates, 7 days, diet of autoclaved yeast (1 mg/ml)
Source text: TMOF can traverse the gut epithelium, enter the hemolymph and bind a gut receptor (Borovsky, D. and F. Mahmood (1995) “Feeding the mosquito Aedes aegypti with TMOF and its analogs; effect on trypsin biosynthesis and egg development,” Regulatory Peptides 57:273-281.; Borovsky, D., C. A. Powell, J. K. Nayar, J. E. Blalock, and T. K. Hayes (1994) “Characterization and localization of mosquito-gut receptors for trypsin modulating oostatic factor using complementary peptide immunochemistry” FASEB J. 8:350-355.). […] This characteristic permits testing of TMOF and its analogs by feeding them to mosquito and other pest larvae. To determine whether truncated TMOF peptides have an effect on larval growth and development, a series of peptides were synthesized and tested by feeding them to mosquito larvae at concentrations of 0.5 to 5.0 mg/ml (Table 1). Individual, newly hatched Aedes aegypti larvae were maintained in separate microtiter wells on a diet of autoclaved yeast (1 mg/ml). The diet was supplemented with TMOF peptides (Table 1). An identical number of larvae which were maintained on yeast served as a control. […] All control groups survived and larval growth and development was normal. Since larvae swallow only a small portion of the yeast particles that adsorbed the peptides, it is assumed that approximately 1 to 20 ng are taken orally at the high concentrations.

trypsin biosynthesis [2] = assay: Injecting TMOF-R analogues into second instar Heliothis virescens: trypsin biosynthesis (BApNA); assay type: in vivo; settings: second instar larvae, 24 hours after injection
Procedure: TMOF analogues (5 to 8 amino acids in length, and polymers of these analogues) in which Arg was added at the C-terminus were evaluated to determine their effect on larval growth and development. A series of analogues were synthesized and tested by feeding them to mosquito larvae at concentrations of (0.5 to 5.0 mg/ml; Table 4). Concentrations of 2.0 to 0.065 mg/ml were used to feed mosquito larvae and calculate the Lethal Dose at 50% mortality (LD50; Table 4) of the TMOF analogues. […] In both cases larval death and trypsin biosynthesis inhibition was noted (Table 4 and 5). […] The advantage of using short analogues connected by Arg is that they can be digested in the gut into short TMOF analogues that can penetrate the midgut much faster than longer analogues.
Individual second instar larvae of H. virescens were injected with TMOF-R analogues (10 to 0.25 μg per larva) and maintained in separate plastic cups on artificial diet. Twenty-four hours after the injections 3 groups of larvae (3 per group) were assayed for trypsin biosynthesis using BApNA (trypsin specific substrate; Table 5).

[3] = test system: first instar H. virescens larvae; assay: Feeding of first instar H. virescens on TMOF analogs for 14 days; assay type: in vivo, Heliothis virescens; settings: first instar larvae fed individually 1.6 µg of TMOF analogs for 14 days
trypsin biosynthesis [4] = assay: Feeding TMOF analogs to fourth instar H. virescens: gut trypsin biosynthesis ([3H]DFP); assay type: in vivo, Heliothis virescens; settings: guts of fourth instar larvae after 5 days feeding on 0.8 mg of TMOF analogs
Procedure: (§1) Larvae were fed for 5 to 14 days and larval weight and trypsin activity were measured at the end of the experimental periods. […] When first instar larvae were fed for 14 days on analogs 15 and 16 (Table 4), an 18% and 26% reduction in weight was observed.

[5] = test system: fourth instar Heliothis virescens; assay: Feeding TMOF analogs to fourth instar H. virescens: larval weight; assay type: in vivo; settings: fourth instar larvae fed synthetic food and 0.8 mg of TMOF analogs for 5 days
Procedure: In both cases a reduction in weight gain and trypsin inhibition was noted (Tables 3 and 4).
as §1

| Substance | larval growth (larval length) compared with controls ([1]; first instar S. exigua fed TMOF (0 to 100 μg) adsorbed on 50 mg artificial diet blocks for 6 days) | amount of TMOF fed at which maximum growth inhibition occurred ([1]; first instar S. exigua, 50 mg diet blocks, 6 days) | LD50 mM ± S.E.M. (mosquito larvae) | Inhibition (% ± S.E.M.) of trypsin biosynthesis (trypsin biosynthesis [2]; 0.25 μg/injection) | Inhibition (% ± S.E.M.) of trypsin biosynthesis (trypsin biosynthesis [2]; 0.5 μg/injection) | Inhibition (% ± S.E.M.) of trypsin biosynthesis (trypsin biosynthesis [2]; 1 μg/injection) | Inhibition (% ± S.E.M.) of trypsin biosynthesis (trypsin biosynthesis [2]; 10 μg/injection) | Number of Dead Larvae [3] | Weight (mg) ± S.E.M. [3] | Weight Reduction (%) ± S.E.M. [3] | Inhibition (% ± S.E.M.) of trypsin biosynthesis (trypsin biosynthesis [4]) | Trypsin μg ± S.E.M. (trypsin biosynthesis [4]) | Weight Gain [5] | Weight mg ± S.E.M. End [5] |
| --- | --- | --- | --- | --- | --- | --- | --- | --- | --- | --- | --- | --- | --- | --- |
| YDPAP6 (YDPAPPPPPP; listed as Aedes aegypti) [reference compound] | did not grow as fast as the controls | 100 µg | 3 0.2 ± 0.02 mM | 19.5 ± 0.7% | 11 ± 1% | 25 ± 2% | 56% | – | – | – | – | – | – | – |
| YDFAP (TMOF peptide) [39] | – | – | 3 0.74 ± 0.13 mM | – | – | – | – | 1 | 121 ± 7 mg | 26 ± 1.5% | 19 ± 1.5% | 2.1 ± 0.2 µg | 164 mg | 201 ± 12 mg |
| Y(D)DPAP (Y[dD]PAP) [33] | – | – | 3 1.2 ± 0.3 mM | – | – | – | – | 1 | 152 ± 27 mg | 7 ± 1% | 15 ± 1.3% | 2.1 ± 0.2 µg | 153 mg | 188 ± 12 mg |
